Data from US10836725B2, “Modulators of the integrated stress pathway” (Calico Life Sciences LLC, priority 2016, dated 2020).

Tested on: ATF4 luciferase reporter
Assay: ATF4-Luc assay in HEK293T cells carrying the ATF4 luciferase reporter (in vitro model of VWMD)
Assay type: cell-based, human
Conditions: Homo sapiens, HEK-293T, 1 μg/mL tunicamycin, 7 hours, luminescence (One Glo)
Description: In order to test exemplary compounds of the invention in a cellular context, a stable VWMD cell line was first constructed. The ATF4 reporter was prepared by fusing the human full-length ATF4 5′-UTR (NCBI Accession No. BC022088.2) in front of the firefly luciferase (FLuc) coding sequence lacking the initiator methionine as described in Sidrauski et al (eLife 2013). The construct was used to produce recombinant retroviruses using standard methods and the resulting viral supernatant was used to transduce HEK293T cells, which were then subsequently selected with puromycin to generate a stable cell line.
HEK293T cells carrying the ATF4 luciferase reporter were plated on polylysine coated 384-well plates (Greiner Bio-one) at 30,000 cells per well. Cells were treated the next day with 1 μg/mL tunicamycin and 200 nM of a compound of Formula (I) for 7 hours. Luminescence was measured using One Glo (Promega) as specified by the manufacturer. Cells were maintained in DMEM with L-glutamine supplemented with 10% heat-inactivated FBS (Gibco) and Antibiotic-Antimycotic solution (Gibco).
Table 2 below summarizes the EC50 data obtained using the ATF4-Luc assay for exemplary compounds of the invention.

| Structure (SMILES) | EC50 [nM] |
| --- | --- |
| O=C(COc1ccc(Cl)c(F)c1)NC12CCC(C(=O)NCc3cncc(F)c3)(CC1)C(O)C2 (stereo not drawn) [Compound 112, 4-[2-(4-chloro-3-fluorophenoxy)acetamido]-N-[(5-fluoropyridin-3-yl)methyl]-2-hydroxybicyclo[2.2.2]octane-1-carboxamide] | > 2000 |
| O=C(COc1ccc(Cl)c(F)c1)NC12CCC(C(=O)NCc3cocn3)(CC1)C(O)C2 (stereo not drawn) [Compound 115, 4-[2-(4-chloro-3-fluorophenoxy)acetamido]-2-hydroxy-N-[(1,3-oxazol-4-yl)methyl]bicyclo[2.2.2]octane-1-carboxamide] | > 2000 |
| Cn1ccc(CNC(=O)C23CCC(NC(=O)COc4ccc(Cl)c(F)c4)(CC2)CC3O)n1 (stereo not drawn) [Compound 116, 4-[2-(4-chloro-3-fluorophenoxy)acetamido]-2-hydroxy-N-[(1-methyl-1H-pyrazol-3-yl)methyl]bicyclo[2.2.2]octane-1-carboxamide] | > 2000 |
| Cc1cnc(CNC(=O)C23CCC(NC(=O)COc4ccc(Cl)c(F)c4)(CC2)CC3O)cn1 (stereo not drawn) [Compound 119, 4-[2-(4-chloro-3-fluorophenoxy)acetamido]-2-hydroxy-N-[(5-methylpyrazin-2-yl)methyl]bicyclo[2.2.2]octane-1-carboxamide] | 1000 to 2000 |
| CS(=O)(=O)c1ccc(CNC(=O)C23CCC(NC(=O)COc4ccc(Cl)c(F)c4)(CC2)CC3O)nc1 (stereo not drawn) [Compound 121, 4-[2-(4-chloro-3-fluorophenoxy)acetamido]-2-hydroxy-N-{[5-(methanesulfonyl)pyridin-2-yl]methyl}bicyclo[2.2.2]octane-1-carboxamide] | > 2000 |
| Cc1cccc(CNC(=O)C23CCC(NC(=O)COc4ccc(Cl)c(F)c4)(CC2)CC3O)c1 (stereo not drawn) [Compound 124, 4-[2-(4-chloro-3-fluorophenoxy)acetamido]-2-hydroxy-N-[(3-methylphenyl)methyl]bicyclo[2.2.2]octane-1-carboxamide] | 500 to 1000 |
| O=C(COc1ccc(Cl)c(F)c1)NC12CCC(C(=O)NCc3cc(F)cc(C(F)(F)F)c3)(CC1)C(O)C2 (stereo not drawn) [Compound 126, 4-[2-(4-chloro-3-fluorophenoxy)acetamido]-N-{[3-fluoro-5-(trifluoromethyl)phenyl]methyl}-2-hydroxybicyclo[2.2.2]octane-1-carboxamide] | > 2000 |
| COc1cccc(CNC(=O)C23CCC(NC(=O)COc4ccc(Cl)c(F)c4)(CC2)CC3O)c1 (stereo not drawn) [Compound 127, 4-[2-(4-chloro-3-fluorophenoxy)acetamido]-2-hydroxy-N-[(3-methoxyphenyl)methyl]bicyclo[2.2.2]octane-1-carboxamide] | 1000 to 2000 |
| O=C(COc1ccc(Cl)c(F)c1)NC12CCC(C(=O)NCc3cccc(OC(F)(F)F)c3)(CC1)C(O)C2 (stereo not drawn) [Compound 136, 4-[2-(4-chloro-3-fluorophenoxy)acetamido]-2-hydroxy-N-{[3-(trifluoromethoxy)phenyl]methyl}bicyclo[2.2.2]octane-1-carboxamide] | 500 to 1000 |
| CC(C)(C)c1ccc(CNC(=O)C23CCC(NC(=O)COc4ccc(Cl)c(F)c4)(CC2)CC3O)cc1 (stereo not drawn) [Compound 137, N-[(4-tert-butylphenyl)methyl]-4-[2-(4-chloro-3-fluorophenoxy)acetamido]-2-hydroxybicyclo[2.2.2]octane-1-carboxamide] | 500 to 1000 |
| O=C(COc1ccc(Cl)c(F)c1)NC12CCC(C(=O)NCc3ccccn3)(CC1)C(O)C2 (stereo not drawn) [Compound 139] | 1000 to 2000 |
| CC(NC(=O)C12CCC(NC(=O)COc3ccc(Cl)c(F)c3)(CC1)CC2O)c1cccnc1 (stereo not drawn) [Compound 140, 4-[2-(4-chloro-3-fluorophenoxy)acetamido]-2-hydroxy-N-[1-(pyridin-3-yl)ethyl]bicyclo[2.2.2]octane-1-carboxamide] | > 2000 |
| Cc1ccc(CNC(=O)C23CCC(NC(=O)COc4ccc(Cl)c(F)c4)(CC2)CC3O)nc1 (stereo not drawn) [Compound 142, 4-[2-(4-chloro-3-fluorophenoxy)acetamido]-2-hydroxy-N-[(5-methylpyridin-2-yl)methyl]bicyclo[2.2.2]octane-1-carboxamide] | 500 to 1000 |

Next, values leading:

| EC50 [nM] | Structure (SMILES) |
| --- | --- |
| < 250 | O=C(COc1ccc(Cl)c(F)c1)NC12CC(C(=O)NCc3ccc(Cl)cc3)(C1)C2 [Compound 117, 3-[2-(4-chloro-3-fluorophenoxy)acetamido]-N-[(4-chlorophenyl)methyl]bicyclo[1.1.1]pentane-1-carboxamide] |
| < 250 | O=C(COc1ccc(Cl)c(F)c1)NC12CC(C(=O)NCc3ccc(C(F)(F)F)cn3)(C1)C2 [Compound 118, 3-[2-(4-chloro-3-fluorophenoxy)acetamido]-N-{[5-(trifluoromethyl)pyridin-2-yl]methyl}bicyclo[1.1.1]pentane-1-carboxamide] |
| < 250 | O=C(COc1ccc(Cl)c(F)c1)NC12CCC(C(=O)NCc3cc(C(F)(F)F)ccn3)(CC1)C(O)C2 (stereo not drawn) [Compound 120, 4-[2-(4-chloro-3-fluorophenoxy)acetamido]-2-hydroxy-N-{[4-(trifluoromethyl)pyridin-2-yl]methyl}bicyclo[2.2.2]octane-1-carboxamide] |
| < 250 | O=C(COc1ccc(F)cc1)NC12CCC(C(=O)NCc3ccc(C(F)(F)F)cn3)(CC1)C(O)C2 (stereo not drawn) [Compound 122, 4-[2-(4-fluorophenoxy)acetamido]-2-hydroxy-N-{[5-(trifluoromethyl)pyridin-2-yl]methyl}bicyclo[2.2.2]octane-1-carboxamide] |
| < 250 | O=C(COc1ccc(F)cc1)NC12CCC(C(=O)NCc3ccc(C(F)(F)F)cc3)(CC1)C(O)C2 (stereo not drawn) [Compound 123, 4-[2-(4-fluorophenoxy)acetamido]-2-hydroxy-N-{[4-(trifluoromethyl)phenyl]methyl}bicyclo[2.2.2]octane-1-carboxamide] |
| < 250 | Cc1ccc(CNC(=O)C23CCC(NC(=O)COc4ccc(Cl)c(F)c4)(CC2)CC3O)cc1 (stereo not drawn) [Compound 125, 4-[2-(4-chloro-3-fluorophenoxy)acetamido]-2-hydroxy-N-[(4-methylphenyl)methyl]bicyclo[2.2.2]octane-1-carboxamide] |
| < 250 | COc1ccc(CNC(=O)C23CCC(NC(=O)COc4ccc(Cl)c(F)c4)(CC2)CC3O)cc1 (stereo not drawn) [Compound 128, 4-[2-(4-chloro-3-fluorophenoxy)acetamido]-2-hydroxy-N-[(4-methoxyphenyl)methyl]bicyclo[2.2.2]octane-1-carboxamide] |
| 250 to 500 | O=C(COc1ccc(Cl)c(F)c1)NC12CCC(C(=O)NCc3cccc(F)c3)(CC1)C(O)C2 (stereo not drawn) [Compound 129, 4-[2-(4-chloro-3-fluorophenoxy)acetamido]-N-[(3-fluorophenyl)methyl]-2-hydroxybicyclo[2.2.2]octane-1-carboxamide] |
| < 250 | O=C(COc1ccc(Cl)c(F)c1)NC12CCC(C(=O)NCc3ccc(F)cc3)(CC1)C(O)C2 (stereo not drawn) [Compound 130, 4-[2-(4-chloro-3-fluorophenoxy)acetamido]-N-[(4-fluorophenyl)methyl]-2-hydroxybicyclo[2.2.2]octane-1-carboxamide] |
| 250 to 500 | O=C(COc1ccc(Cl)c(F)c1)NC12CCC(C(=O)NCc3cccc(Cl)c3)(CC1)C(O)C2 (stereo not drawn) [Compound 131, 4-[2-(4-chloro-3-fluorophenoxy)acetamido]-N-[(3-chlorophenyl)methyl]-2-hydroxybicyclo[2.2.2]octane-1-carboxamide] |
| < 250 | O=C(COc1ccc(Cl)c(F)c1)NC12CCC(C(=O)NCc3ccc(Cl)cc3)(CC1)C(O)C2 (stereo not drawn) [Compound 132, 4-[2-(4-chloro-3-fluorophenoxy)acetamido]-N-[(4-chlorophenyl)methyl]-2-hydroxybicyclo[2.2.2]octane-1-carboxamide] |
| < 250 | O=C(COc1ccc(Cl)c(F)c1)NC12CCC(C(=O)NCc3ccc(OC(F)(F)F)cc3)(CC1)C(O)C2 (stereo not drawn) [Compound 133, 4-[2-(4-chloro-3-fluorophenoxy)acetamido]-2-hydroxy-N-{[4-(trifluoromethoxy)phenyl]methyl}bicyclo[2.2.2]octane-1-carboxamide] |
| < 250 | CN(C)c1ccc(CNC(=O)C23CCC(NC(=O)COc4ccc(Cl)c(F)c4)(CC2)CC3O)cc1 (stereo not drawn) [Compound 134, 4-[2-(4-chloro-3-fluorophenoxy)acetamido]-N-{[4-(dimethylamino)phenyl]methyl}-2-hydroxybicyclo[2.2.2]octane-1-carboxamide] |
| < 250 | O=C(COc1ccc(Cl)c(F)c1)NC12CCC(C(=O)NCc3cccc(C(F)(F)F)c3)(CC1)C(O)C2 (stereo not drawn) [Compound 135, 4-[2-(4-chloro-3-fluorophenoxy)acetamido]-2-hydroxy-N-{[3-(trifluoromethyl)phenyl]methyl}bicyclo[2.2.2]octane-1-carboxamide] |
| < 250 | O=C(COc1ccc(Cl)c(F)c1)NC12CCC(C(=O)NCCc3ccc(C(F)(F)F)cc3)(CC1)C(O)C2 (stereo not drawn) [Compound 138, 4-[2-(4-chloro-3-fluorophenoxy)acetamido]-2-hydroxy-N-{2-[4-(trifluoromethyl)phenyl]ethyl}bicyclo[2.2.2]octane-1-carboxamide] |
| < 250 | N#Cc1ccc(CNC(=O)C23CCC(NC(=O)COc4ccc(Cl)c(F)c4)(CC2)CC3O)nc1 (stereo not drawn) [Compound 141, 4-[2-(4-chloro-3-fluorophenoxy)acetamido]-N-[(5-cyanopyridin-2-yl)methyl]-2-hydroxybicyclo[2.2.2]octane-1-carboxamide] |
| < 250 | Cc1ccnc(CNC(=O)C23CCC(NC(=O)COc4ccc(Cl)c(F)c4)(CC2)CC3O)c1 (stereo not drawn) [Compound 143, 4-[2-(4-chloro-3-fluorophenoxy)acetamido]-2-hydroxy-N-[(4-methylpyridin-2-yl)methyl]bicyclo[2.2.2]octane-1-carboxamide] |
